Experiment [1] deals with reserpine-induced hypothermia. Description: Antidepressive action: reserpine antagonism, inhibition of reserpine-induced hypothermia of the mouse. It is filed as in vivo, male Swiss mice. To be noted: for R.A. (relative activity), reserpine antagonism: amezinium = 1.00, oral; for ED 50% (dose which inhibits the reserpine-induced hypothermia of the mouse by 50%) / ED50: dose based on the base; for ED50: Mus musculus, read-out: ED 50% (dose which inhibits the reserpine-induced hypothermia of the mouse by 50%). On the procedure:
Antidepressants effect dose-dependent inhibition of this hypotherma. The test substances are administered orally 60 minutes before the administration of reserpine.
The dose which effects 50% inhibition of the reserpine-induced hypothermia is determined, as the ED 50%, from the linear regression between log dose (mg/kg) and relative reduction in hypothermia (Δ%).

The test system of experiment [2] is reserpine-induced hypothermia / blood pressure. Description: Quotient ED 50% antidepressive action / ED 20% hypertensive action.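 As to Q Increase: larger quotient means more selective hypertensive action.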 It is filed as in vivo, mouse / rat. The following applies: for Q Increase: Table 2, route of hypertensive test not given; for antidepressive and hypertensive action (in words): in vivo; for factor by which the hypertensive dose (ED 20%) is smaller than the antidepressive effective dose (ED 50%): compounds of Table 2. The text has this: This is evident from the fact that the quotient defined above differs wtih respect to the comparative compounds. […] This arises, inter alia, from the fact that the hypertensive ED 20 constitutes the denominator of the quotient. It is possible that the unforeseeable selective direction of action is attributable to the special substitution,in accordance with the invention, at the 4-imino group.

In another experiment the test system is blood pressure. Kind of experiment: Effect on the blood pressure: hypertensive action, pithed rat. The experiment is classed as in vivo, male Sprague-Dawley rats. The following applies: for R.A. (relative activity), hypertensive action: amezinium = 1.00; for ED 20% hypertensive action (dose which increases the blood pressure of the pithed rat by 20%) / ED20: dose based on the base; for ED20: Rattus norvegicus, read-out: ED 20% hypertensive action (dose which increases the blood pressure of the pithed rat by 20%). On the procedure: The measurement of the blood pressure in the carotid artery was carried out by means of Statham transducers. The substance was administered in the jugular vein (as an aqueous solution, 1 ml/kg) or intraperitoneally (as a tragacanth suspension, 2 ml/kg). The ED 20% is determined as the dose which increases the blood pressure by 20%.

Where [3] appears, read: Table 1, oral administration 60 min before reserpine.
Setting [4] is: ip, Table 1, i.p. administration.
[5] abbreviates: iv, Table 1, i.v. administration.

Counter-ions that a name gives are not always drawn. Like-named read-outs stand apart in the source and are kept apart here.

For the compound `Nc1cc[n+](-c2ccccc2)nc1.[O-][Cl+3]([O-])([O-])[O-]` [1-phenyl-4-amino-pyridazinium perchlorate, reference compound], the “R.A. (relative activity), reserpine antagonism” value in experiment [1] (Table 1) and in experiment [1] (Table 2) was 1.83 each time. For the same compound, the “ED 50% (dose which inhibits the reserpine-induced hypothermia of the mouse by 50%)” value in experiment [1] (setting [3]) stood at 0.40 mg/kg; in experiment [1] (Table 2, oral administration) it was 0.40 mg/kg. Moreover, the “Q Increase” value in experiment [2] worked out at 22.22. In addition, the “Q (quotient ED 50% antidepressive action/ED 20% hypertensive action)” value is 1.60 in experiment [2] (hypertensive test i.p.); 1.6 in experiment [2] (hypertensive test i.p., listed as Example 1 of German Laid-Open Application DOS No. 2,245,248); 22.22 in experiment [2] (hypertensive test i.v.); 22.2 in experiment [2] (hypertensive test i.v., listed as Example 1 of German Laid-Open Application DOS No. 2,245,248). Besides, the “antidepressive and hypertensive action (in words)” value in experiment [2] is “have an antidepressive and hypertensive action”. The “R.A. (relative activity), hypertensive action” value in the experiment with blood pressure (Table 1, i.p. administration) turned out to be 1.48; in the experiment with blood pressure (Table 1, i.v. administration), 2.78; in the experiment with blood pressure (Table 2) it was 2.78. The “ED 20% hypertensive action (dose which increases the blood pressure of the pithed rat by 20%)” value with blood pressure (Table 1, i.p. administration) was 0.25 mg/kg; in the experiment with blood pressure (Table 1, i.v. administration), 0.018 mg/kg; in the experiment on blood pressure (Table 2, route not given), 0.018 mg/kg.

For `COc1cc(N)cn[n+]1-c1ccccc1` [Amezinium, 1-phenyl-4-amino-6-methoxypyridazinium methosulfate, reference compound], in experiment [1] (setting [3]), the ED50 is 0.733 mg/kg. Also, the “R.A. (relative activity), reserpine antagonism” value in experiment [1] (Table 1) and in experiment [1] (Table 2) was 1.00 throughout. In addition, the “Q Increase” value in experiment [2] was found to be 14.66. For the same compound, in experiment [2], the “factor by which the hypertensive dose (ED 20%) is smaller than the antidepressive effective dose (ED 50%)” value worked out at 15. The “Q (quotient ED 50% antidepressive action/ED 20% hypertensive action)” value in experiment [2] (hypertensive test i.p.) was found to be 1.98; in experiment [2] (hypertensive test i.v.), 14.66; in experiment [2] (hypertensive test i.v., listed as amezinium) it was 14.7. The “antidepressive and hypertensive action (in words)” value in experiment [2] is “have an antidepressive and hypertensive action”. Moreover, the ED20 with blood pressure (setting [4]) came out at 0.37 mg/kg; in the experiment with blood pressure (setting [5]) it was 0.05 mg/kg; in the experiment with blood pressure (Table 2, route not given), 0.05 mg/kg. In addition, the “R.A. (relative activity), hypertensive action” value in the experiment with blood pressure (Table 1, i.p. administration) is 1.00; in the experiment with blood pressure (Table 1, i.v. administration), 1.00; in the experiment on blood pressure (Table 2) it was 1.00.

Consider `CC(=O)N=c1ccn(-c2ccccc2)nc1` [Example 1, 4-acetylimino-1,4-dihydro-1-phenylpyridazine hydrochloride], for which the ED50 in experiment [1] (setting [3]) is 0.67 mg/kg. In experiment [1] (Table 1), the “R.A. (relative activity), reserpine antagonism” value is 1.09. Moreover, the “Q (quotient ED 50% antidepressive action/ED 20% hypertensive action)” value in experiment [2] (hypertensive test i.v.) was 2.09. The ED20 in the experiment on blood pressure (setting [5]) amounted to 0.32 mg/kg. Also, the “R.A. (relative activity), hypertensive action” value with blood pressure (Table 1, i.v. administration) was found to be 0.16.

On to `CCC(=O)N=c1ccn(-c2ccccc2)nc1` [Example 3, 1,4-dihydro-1-phenyl-4-(propionylimino)-pyridazine hydrochloride], for which the ED50 in experiment [1] (setting [3]) is 0.33 mg/kg. In experiment [1] (Table 1), the “R.A. (relative activity), reserpine antagonism” value came to 2.22. In experiment [2] (hypertensive test i.v.), the “Q (quotient ED 50% antidepressive action/ED 20% hypertensive action)” value is given as 1.65. Also, in the experiment with blood pressure (setting [5]), the ED20 is 0.2 mg/kg. For the same compound, in the experiment with blood pressure (Table 1, i.v. administration), the “R.A. (relative activity), hypertensive action” value was 0.25.

As for `CC(C)C(=O)N=c1ccn(-c2ccccc2)nc1` [Example 5, 1,4-dihydro-4-isobutyrylimino-1-phenylpyridazine hydrochloride], the ED50 in experiment [1] (setting [3]) was 0.4 mg/kg. In experiment [1] (Table 1), the “R.A. (relative activity), reserpine antagonism” value turned out to be 1.83. Also, in experiment [2] (hypertensive test i.v.), the “Q (quotient ED 50% antidepressive action/ED 20% hypertensive action)” value came to 1.82. Besides, the ED20 in the experiment with blood pressure (setting [5]) came to 0.215 mg/kg. The “R.A. (relative activity), hypertensive action” value in the experiment on blood pressure (Table 1, i.v. administration) amounted to 0.23.

As for `CCCCCCCC(=O)N=c1ccn(-c2ccccc2)nc1` [Example 8, 1,4-dihydro-4-octanoylimino-1-phenylpyridazine hydrochloride], the ED50 in experiment [1] (Table 2, oral administration) was 5.23 mg/kg. Moreover, in experiment [1] (Table 2), the “R.A. (relative activity), reserpine antagonism” value stood at 0.14. Also, the “Q Increase” value in experiment [2] is 95.09. The ED20 with blood pressure (Table 2, route not given) turned out to be 0.055 mg/kg. In addition, the “R.A. (relative activity), hypertensive action” value with blood pressure (Table 2) is listed as 0.91.

On to `O=C(Cc1ccccc1)N=c1ccn(-c2ccccc2)nc1` [Example 9, 1,4-dihydro-1-phenyl-4-[(phenylacetyl)-imino]-pyridazine hydrochloride], for which, in experiment [1] (Table 2, oral administration), the ED50 amounted to 3.98 mg/kg. Moreover, the “R.A. (relative activity), reserpine antagonism” value in experiment [1] (Table 2) stood at 0.18. In addition, the “Q Increase” value in experiment [2] worked out at 63.17. In the experiment on blood pressure (Table 2, route not given), the ED20 was 0.063 mg/kg. Further, the “R.A. (relative activity), hypertensive action” value in the experiment on blood pressure (Table 2) worked out at 0.79.

On to `O=C(N=c1ccn(-c2ccccc2)nc1)C1CC1` [Example 10, 4-(cyclopropylcarbonyl)-imino-1,4-dihydro-1-phenylpyridazine hydrochloride], for which the ED50 in experiment [1] (setting [3]) was 1.41 mg/kg. The “R.A. (relative activity), reserpine antagonism” value in experiment [1] (Table 1) was 0.52. The “Q (quotient ED 50% antidepressive action/ED 20% hypertensive action)” value in experiment [2] (hypertensive test i.v.) was 3.04. Further, in the experiment with blood pressure (setting [5]), the ED20 was 0.464 mg/kg. Besides, the “R.A. (relative activity), hypertensive action” value with blood pressure (Table 1, i.v. administration) is 0.11.

As for `O=C(N=c1ccn(-c2ccccc2)nc1)C1CCC1` [Example 11, 4-(cyclobutylcarbonyl)-imino-1,4-dihydro-1-phenylpyridazine hydrochloride], in experiment [1] (Table 2, oral administration), the ED50 was determined as 6.09 mg/kg. Moreover, in experiment [1] (Table 2), the “R.A. (relative activity), reserpine antagonism” value is given as 0.12. In addition, the “Q Increase” value in experiment [2] is 79.09. In addition, the ED20 in the experiment on blood pressure (Table 2, route not given) was found to be 0.077 mg/kg. Also, the “R.A. (relative activity), hypertensive action” value in the experiment on blood pressure (Table 2) is 0.65.

Consider `C=C(C)C(=O)N=c1ccn(-c2ccccc2)nc1` [Example 12, 1,4-dihydro-4-methacryloylimino-1-phenylpyridazine], for which, in experiment [1] (Table 2, oral administration), the ED50 worked out at 0.75 mg/kg. Besides, in experiment [1] (Table 2), the “R.A. (relative activity), reserpine antagonism” value is reported as 0.98. For the same compound, the “Q Increase” value in experiment [2] is on record as 34.09. Further, the ED20 in the experiment on blood pressure (Table 2, route not given) is 0.022 mg/kg. Moreover, the “R.A. (relative activity), hypertensive action” value with blood pressure (Table 2) was found to be 2.27.

For the compound `O=C(N=c1ccn(-c2ccccc2)nc1)c1ccc(F)cc1` [Example 14, 1,4-dihydro-4-(4-fluorobenzoyl)-imino-1-phenylpyridazine hydrochloride], in experiment [1] (Table 2, oral administration), the ED50 was found to be 1 mg/kg. Besides, in experiment [1] (Table 2), the “R.A. (relative activity), reserpine antagonism” value turned out to be 0.73. For the same compound, in experiment [2], the “Q Increase” value was determined as 23.81 and the “factor by which the hypertensive dose (ED 20%) is smaller than the antidepressive effective dose (ED 50%)” value was determined as 24. In the experiment with blood pressure (Table 2, route not given), the ED20 came to 0.042 mg/kg. Moreover, the “R.A. (relative activity), hypertensive action” value with blood pressure (Table 2) came to 1.19.

Regarding `O=C(N=c1ccn(-c2ccccc2)nc1)c1cc(Cl)cc(Cl)c1` [Example 15, 4-(3,5-dichlorobenzoyl)-imino-1,4-dihydro-1-phenylpyridazine], in experiment [1] (setting [3]), the ED50 was determined as 2.7 mg/kg. The “R.A. (relative activity), reserpine antagonism” value in experiment [1] (Table 1) was found to be 0.27. Moreover, the “Q (quotient ED 50% antidepressive action/ED 20% hypertensive action)” value in experiment [2] (hypertensive test i.p.) is on record as less than 0.27. Moreover, the ED20 in the experiment on blood pressure (setting [4]) is greater than 10 mg/kg. In addition, the “R.A. (relative activity), hypertensive action” value in the experiment with blood pressure (Table 1, i.p. administration) is less than 0.04.

For `O=C(N=c1ccn(-c2ccccc2)nc1)c1ccccc1` [Example 16, 4-benzoylimino-1,4-dihydro-1-phenylpyridazine], in experiment [1] (Table 2, oral administration), the ED50 stood at 1.33 mg/kg. In addition, in experiment [1] (Table 2), the “R.A. (relative activity), reserpine antagonism” value came to 0.55. For the same compound, in experiment [2], the “Q Increase” value came out at 28.91. The ED20 in the experiment on blood pressure (Table 2, route not given) worked out at 0.046 mg/kg. Also, the “R.A. (relative activity), hypertensive action” value in the experiment on blood pressure (Table 2) amounted to 1.09.

For `COC(=O)[C@H]1[C@H]2C[C@@H]3c4[nH]c5cc(OC)ccc5c4CCN3C[C@H]2C[C@@H](OC(=O)c2cc(OC)c(OC)c(OC)c2)[C@@H]1OC` [Reserpine, reference compound], the “reduction of body temperature” value in experiment [1] (2.15 mg/kg s.c., 2 hours after administration, ambient 20° to 22° C., average) was found to be 3 °C.
